Test results taken from PubChem BioAssay (NCI).
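Test compounds were applied to cells in 96-well plates for 48 hours at 5 doses. GI50 = concentration required for 50% inhibition of growth. TGI: concentration producing complete growth inhibition.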

Tests used:
Assay in all cases: NCI-60 cell line screen, 48 h
[1] = test system: NCI-H226 lung
[2] = test system: SW-620 colon
[3] = test system: MDA-MB-435
[4] = test system: OVCAR-3 ovarian
[5] = test system: OVCAR-8 ovarian
[6] = test system: PC-3 prostate
[7] = test system: HOP-92 NSCLC
[8] = test system: ACHN renal
[9] = test system: NCI/ADR-RES ovarian
[10] = test system: TK-10 renal
[11] = test system: SF-539 CNS
[12] = test system: T-47D breast
[13] = test system: UO-31 renal
[14] = test system: RPMI-8226 leukemia
[15] = test system: HT29 colon
[16] = test system: SNB-75 CNS
[17] = test system: K-562 leukemia
[18] = test system: MDA-MB-231 breast
[19] = test system: OVCAR-5 ovarian
[20] = test system: M14 melanoma
[21] = test system: CAKI-1 renal
[22] = test system: HCC-2998 colon
[23] = test system: HL-60(TB) leukemia
[24] = test system: SF-295 CNS
[25] = test system: U251 CNS
[26] = test system: BT-549 breast
[27] = test system: NCI-H522 lung
[28] = test system: HS 578T breast
[29] = test system: OVCAR-4 ovarian
[30] = test system: KM12 colon
[31] = test system: HCT-15 colon
[32] = test system: MCF7 breast
[33] = test system: SN12C renal
[34] = test system: RXF 393 renal
[35] = test system: COLO 205 colon
[36] = test system: SK-MEL-5 melanoma
[37] = test system: NCI-H460 lung
[38] = test system: EKVX NSCLC
[39] = test system: IGROV1 ovarian
[40] = test system: SK-MEL-2 melanoma
[41] = test system: HOP-62 NSCLC
[42] = test system: SF-268 CNS
[43] = test system: SK-MEL-28 melanoma
[44] = test system: UACC-62 melanoma
[45] = test system: NCI-H23 lung
[46] = test system: UACC-257 melanoma
[47] = test system: SNB-19 CNS
[48] = test system: HCT-116 colon
[49] = test system: A498 renal
[50] = test system: A549 NSCLC
[51] = test system: MOLT-4 leukemia
[52] = test system: SR leukemia
[53] = test system: CCRF-CEM leukemia
[54] = test system: DU-145 prostate
[55] = test system: 786-0 renal
[56] = test system: SK-OV-3 ovarian
[57] = test system: LOX IMVI melanoma

Q: Which TGI [1] does the source give for `O=C(Cc1ccccc1CCO)NCCc1ccccc1` here?
A: > 100 µM

Q: And the TGI [2]?
A: > 100 µM

Q: And the TGI [3]?
A: > 100 µM

Q: What about the TGI [4] of the same compound?
A: > 100 µM

Q: And the TGI [5]?
A: > 100 µM

Q: What about the TGI [6] of the same compound?
A: > 100 µM

Q: And the TGI [7]?
A: > 100 µM

Q: And the TGI [8]?
A: > 100 µM

Q: And the TGI [9]?
A: > 100 µM

Q: And the TGI [10]?
A: > 100 µM

Q: And the TGI [11]?
A: > 100 µM

Q: What about the TGI [12] of the same compound?
A: > 100 µM

Q: What about the TGI [13] of the same compound?
A: > 100 µM

Q: And the TGI [14]?
A: > 100 µM

Q: And the TGI [15]?
A: > 100 µM

Q: And the TGI [16]?
A: > 100 µM

Q: What about the TGI [17] of the same compound?
A: > 100 µM

Q: What about the TGI [18] of the same compound?
A: > 100 µM

Q: And the TGI [19]?
A: > 100 µM

Q: And the TGI [20]?
A: > 100 µM

Q: What about the TGI [21] of the same compound?
A: > 100 µM

Q: What about the TGI [22] of the same compound?
A: > 100 µM

Q: What about the TGI [23] of the same compound?
A: > 100 µM

Q: And the TGI [24]?
A: > 100 µM

Q: And the TGI [25]?
A: > 100 µM

Q: What about the TGI [26] of the same compound?
A: > 100 µM

Q: And the TGI [27]?
A: > 100 µM

Q: What about the TGI [28] of the same compound?
A: > 100 µM

Q: And the TGI [29]?
A: > 100 µM

Q: What about the TGI [30] of the same compound?
A: > 100 µM

Q: And the TGI [31]?
A: > 100 µM

Q: What about the TGI [32] of the same compound?
A: > 100 µM

Q: What about the TGI [33] of the same compound?
A: > 100 µM

Q: What about the TGI [34] of the same compound?
A: > 100 µM

Q: What about the TGI [35] of the same compound?
A: > 100 µM

Q: And the TGI [36]?
A: > 100 µM

Q: What about the TGI [37] of the same compound?
A: > 100 µM

Q: And the TGI [38]?
A: > 100 µM

Q: And the TGI [39]?
A: > 100 µM

Q: And the TGI [40]?
A: > 100 µM

Q: And the TGI [41]?
A: > 100 µM

Q: And the TGI [42]?
A: > 100 µM

Q: What about the TGI [43] of the same compound?
A: > 100 µM

Q: And the TGI [44]?
A: > 100 µM

Q: And the TGI [45]?
A: > 100 µM

Q: And the TGI [46]?
A: > 100 µM

Q: And the TGI [47]?
A: > 100 µM

Q: What about the TGI [48] of the same compound?
A: > 100 µM

Q: And the TGI [49]?
A: > 100 µM

Q: What about the TGI [50] of the same compound?
A: > 100 µM

Q: What about the TGI [51] of the same compound?
A: > 100 µM

Q: And the TGI [52]?
A: > 100 µM

Q: And the TGI [53]?
A: > 100 µM

Q: And the TGI [54]?
A: > 100 µM

Q: What about the TGI [55] of the same compound?
A: > 100 µM

Q: What about the TGI [56] of the same compound?
A: > 100 µM

Q: For `Cc1ccc(C2C3Cc4ccccc4C3=NN2c2ccc(S(=O)(=O)NC(=O)NC3CCCCC3)cc2)cc1` (stereo not given), which GI50 [1] is on record?
A: 21.2 µM

Q: And the TGI [1]?
A: 54.6 µM

Q: And the GI50 [2]?
A: 16.6 µM

Q: What about the TGI [2] of the same compound?
A: 40.1 µM

Q: What about the GI50 [3] of the same compound?
A: 14.6 µM

Q: What about the TGI [3] of the same compound?
A: 41.3 µM

Q: And the GI50 [4]?
A: 15 µM

Q: What about the TGI [4] of the same compound?
A: 37.1 µM

Q: And the GI50 [5]?
A: 17.4 µM

Q: What about the TGI [5] of the same compound?
A: 43.6 µM

Q: And the GI50 [6]?
A: 9.66 µM

Q: And the TGI [6]?
A: 26.2 µM

Q: And the GI50 [7]?
A: 11.6 µM

Q: What about the TGI [7] of the same compound?
A: 27.6 µM

Q: And the GI50 [8]?
A: 14.4 µM

Q: What about the TGI [8] of the same compound?
A: 28.5 µM

Q: What about the GI50 [9] of the same compound?
A: 13.4 µM

Q: And the TGI [9]?
A: 35.1 µM

Q: And the GI50 [10]?
A: 11.7 µM

Q: And the TGI [10]?
A: 28.4 µM

Q: What about the GI50 [11] of the same compound?
A: 20.2 µM

Q: And the TGI [11]?
A: 40.7 µM

Q: And the GI50 [12]?
A: 32.5 µM

Q: And the TGI [12]?
A: > 100 µM

Q: What about the GI50 [13] of the same compound?
A: 11 µM

Q: And the TGI [13]?
A: 26.1 µM

Q: And the GI50 [14]?
A: 5.44 µM

Q: And the TGI [14]?
A: 40.8 µM

Q: And the GI50 [15]?
A: 24.5 µM

Q: And the TGI [15]?
A: > 100 µM

Q: What about the GI50 [16] of the same compound?
A: 44 µM

Q: What about the TGI [16] of the same compound?
A: > 100 µM

Q: What about the GI50 [17] of the same compound?
A: 11.5 µM

Q: And the TGI [17]?
A: 52.3 µM

Q: And the GI50 [18]?
A: 28.2 µM

Q: And the TGI [18]?
A: > 100 µM

Q: What about the GI50 [19] of the same compound?
A: 27.3 µM

Q: What about the TGI [19] of the same compound?
A: 55.7 µM

Q: What about the GI50 [20] of the same compound?
A: 33.5 µM

Q: And the TGI [20]?
A: > 100 µM

Q: What about the GI50 [21] of the same compound?
A: 16 µM

Q: What about the TGI [21] of the same compound?
A: 42.1 µM

Q: And the GI50 [22]?
A: 12.6 µM

Q: And the TGI [22]?
A: 28.6 µM

Q: And the GI50 [23]?
A: 22.9 µM

Q: And the TGI [23]?
A: 59.7 µM

Q: What about the GI50 [24] of the same compound?
A: 17.9 µM

Q: And the TGI [24]?
A: 54.2 µM

Q: And the GI50 [25]?
A: 13.2 µM

Q: What about the TGI [25] of the same compound?
A: 30.4 µM

Q: And the GI50 [26]?
A: 18 µM

Q: What about the TGI [26] of the same compound?
A: 42.9 µM

Q: And the GI50 [27]?
A: 5.92 µM

Q: What about the TGI [27] of the same compound?
A: 23.5 µM

Q: What about the GI50 [28] of the same compound?
A: 23.6 µM

Q: And the TGI [28]?
A: 62.7 µM

Q: And the GI50 [29]?
A: 16.6 µM

Q: What about the TGI [29] of the same compound?
A: 39.2 µM

Q: And the GI50 [30]?
A: 11.3 µM

Q: And the TGI [30]?
A: 39.1 µM

Q: What about the GI50 [31] of the same compound?
A: 19.4 µM

Q: And the TGI [31]?
A: 76.7 µM

Q: What about the GI50 [32] of the same compound?
A: 13.5 µM

Q: And the TGI [32]?
A: > 100 µM

Q: And the GI50 [33]?
A: 16.6 µM

Q: And the TGI [33]?
A: 33.1 µM

Q: What about the GI50 [34] of the same compound?
A: 18.7 µM

Q: And the TGI [34]?
A: 54.5 µM

Q: What about the GI50 [35] of the same compound?
A: 14.7 µM

Q: And the TGI [35]?
A: 33.1 µM

Q: And the GI50 [36]?
A: 14.5 µM

Q: And the TGI [36]?
A: 30.3 µM

Q: What about the GI50 [37] of the same compound?
A: 21.6 µM

Q: What about the TGI [37] of the same compound?
A: > 100 µM

Q: And the GI50 [38]?
A: 20.2 µM

Q: And the TGI [38]?
A: 67.1 µM

Q: And the GI50 [39]?
A: 5.75 µM

Q: What about the TGI [39] of the same compound?
A: 24.5 µM

Q: What about the GI50 [40] of the same compound?
A: 18.6 µM

Q: What about the TGI [40] of the same compound?
A: 38.6 µM

Q: What about the GI50 [41] of the same compound?
A: 45.7 µM

Q: What about the TGI [41] of the same compound?
A: > 100 µM

Q: What about the GI50 [42] of the same compound?
A: 25.3 µM

Q: What about the TGI [42] of the same compound?
A: > 100 µM

Q: What about the GI50 [43] of the same compound?
A: 19.9 µM

Q: What about the TGI [43] of the same compound?
A: 38 µM

Q: And the GI50 [44]?
A: 12.7 µM

Q: What about the TGI [44] of the same compound?
A: 28.6 µM

Q: What about the GI50 [45] of the same compound?
A: 15.2 µM

Q: And the TGI [45]?
A: 37.1 µM

Q: And the GI50 [46]?
A: 20.2 µM

Q: What about the TGI [46] of the same compound?
A: 39.7 µM

Q: What about the GI50 [47] of the same compound?
A: 21.3 µM

Q: And the TGI [47]?
A: 64 µM

Q: And the GI50 [48]?
A: 15.5 µM

Q: What about the TGI [48] of the same compound?
A: > 100 µM

Q: What about the GI50 [49] of the same compound?
A: 22.4 µM

Q: And the TGI [49]?
A: 39.6 µM

Q: What about the GI50 [57] of the same compound?
A: 17.8 µM

Q: What about the TGI [57] of the same compound?
A: 44.2 µM

Q: What about the GI50 [50] of the same compound?
A: 12 µM

Q: What about the TGI [50] of the same compound?
A: 27.5 µM

Q: And the GI50 [51]?
A: 7.69 µM

Q: And the TGI [51]?
A: > 100 µM

Q: What about the GI50 [52] of the same compound?
A: 6.25 µM

Q: And the TGI [52]?
A: 32.1 µM

Q: And the GI50 [53]?
A: 8.33 µM

Q: What about the TGI [53] of the same compound?
A: 76.4 µM

Q: And the GI50 [54]?
A: 23.1 µM

Q: What about the TGI [54] of the same compound?
A: 78.9 µM

Q: And the GI50 [55]?
A: 28.6 µM

Q: And the TGI [55]?
A: > 100 µM

Q: What about the GI50 [56] of the same compound?
A: 20.4 µM

Q: And the TGI [56]?
A: 61.3 µM
